Source: patent US20230365589A1, “NOVEL AMINE DERIVATIVES” (Sumitomo Pharma Co., Ltd., priority 2020, published 2023)
Like-named read-outs stand apart in the source and are kept apart here.

Legend:
Assay type in all cases: biochemical
DYRK2 = target: T1, DYRK2 (Homo sapiens, UniProt Q92630); assay: Inhibition test on activity of DYRK family, mobility shift assay (MSA): DYRK2
T1 construct: purchased Carna Biosciences, Inc. 04-132
T1 sequence (Q92630 74-601 limits assumed): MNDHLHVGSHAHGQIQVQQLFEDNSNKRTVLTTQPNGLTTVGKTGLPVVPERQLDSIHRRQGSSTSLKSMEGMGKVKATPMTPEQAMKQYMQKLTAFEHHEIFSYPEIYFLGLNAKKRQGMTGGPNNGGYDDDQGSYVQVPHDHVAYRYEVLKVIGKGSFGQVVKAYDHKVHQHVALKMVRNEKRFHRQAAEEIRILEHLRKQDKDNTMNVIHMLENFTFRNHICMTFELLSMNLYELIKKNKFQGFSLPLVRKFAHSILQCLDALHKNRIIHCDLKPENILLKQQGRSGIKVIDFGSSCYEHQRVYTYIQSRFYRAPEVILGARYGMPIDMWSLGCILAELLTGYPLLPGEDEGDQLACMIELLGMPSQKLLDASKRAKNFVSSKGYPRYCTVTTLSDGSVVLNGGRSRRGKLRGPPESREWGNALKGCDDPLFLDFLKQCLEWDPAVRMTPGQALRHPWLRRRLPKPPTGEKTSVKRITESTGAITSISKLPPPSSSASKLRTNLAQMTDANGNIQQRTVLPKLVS
Method in brief: (§1)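 Reactions ran 1 h at room temperature in HEPES buffer pH 7.5 with FITC-DYRKtide as substrate. ATP in the substrate mix was 100 µM for DYRK1A, 200 µM for DYRK1B, 40 µM for DYRK2 and 20 µM for DYRK3. Phosphorylated and unphosphorylated peptide were separated on a LabChip, and IC50 was regressed on log dose.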

DYRK1B = target: T2, DYRK1B (Homo sapiens, UniProt Q9Y463); assay: Inhibition test on activity of DYRK family, mobility shift assay (MSA): DYRK1B
T2 construct: purchased Carna Biosciences, Inc. 04-131
T2 sequence (Q9Y463 whole entry): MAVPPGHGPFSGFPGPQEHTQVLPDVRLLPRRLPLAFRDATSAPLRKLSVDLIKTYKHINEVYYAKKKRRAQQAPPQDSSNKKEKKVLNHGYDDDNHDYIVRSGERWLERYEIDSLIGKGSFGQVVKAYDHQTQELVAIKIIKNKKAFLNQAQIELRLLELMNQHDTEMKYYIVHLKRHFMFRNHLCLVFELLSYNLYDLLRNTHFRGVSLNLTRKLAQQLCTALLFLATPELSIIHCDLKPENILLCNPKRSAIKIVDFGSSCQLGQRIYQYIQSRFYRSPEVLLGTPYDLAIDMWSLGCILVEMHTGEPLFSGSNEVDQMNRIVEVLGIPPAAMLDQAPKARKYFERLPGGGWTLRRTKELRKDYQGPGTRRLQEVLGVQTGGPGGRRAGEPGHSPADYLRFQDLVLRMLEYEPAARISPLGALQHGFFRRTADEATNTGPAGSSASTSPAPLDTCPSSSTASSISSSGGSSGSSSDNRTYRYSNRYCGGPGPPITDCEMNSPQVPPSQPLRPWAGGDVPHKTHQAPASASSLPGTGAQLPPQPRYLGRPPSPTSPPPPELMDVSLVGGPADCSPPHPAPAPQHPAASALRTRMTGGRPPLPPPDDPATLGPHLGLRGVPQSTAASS
Experimental: [Inhibition Test on Activity of DYRK Family (DYRK1A, DYRK1B, DYRK2, and DYRK3)]
The kinase activity was measured by mobility shift assay (MSA) method using QuickScout Screening Assist™ MSA (commercially available kit manufactured by Carna Biosciences, Inc.). The substrate of the kinase reaction used was an FITC-labeled DYRKtide peptide included in the kit. An assay buffer [20 mM HEPES, 0.01% Triton X-100™, 2 mM dithiothreitol, pH 7.5]was used to create a substrate mixture solution with a substrate (4 μM), MgCl2(20 mM), and ATP (DYRK1A: 100 μM; DYRK1B: 200 μM; DYRK2: 40 μM; and DYRK3: 20 μM). In addition, kinases (DYRK1A: manufactured by Carna Biosciences, Inc., Cat. No. 04-130; DYRK1B: manufactured by Carna Biosciences, Inc., Cat. No. 04-131; DYRK2; manufactured by Carna Biosciences, Inc., Cat. No. 04-132; and DYRK3; manufactured by Carna Biosciences, Inc., Cat. No. 04-133) were diluted with the assay buffer to prepare enzyme solutions (DYRK1A: 0.2 ng/μL; DYRK1B: 0.08 ng/μL; DYRK2: 0.04 ng/μL; and DYRK3: 0.25 ng/μL). The 10 mM solution of the test compound in DMSO was further diluted with DMSO to 10 levels of the concentration (0.00003 mM, 0.0001 mM, 0.0003 mM, 0.001 mM, 0.003 mM, 0.01 mM, 0.03 mM, 0.1 mM, 0.3 mM, and 1 mM), each of which was subjected to 25-fold dilution with the assay buffer to obtain a drug solution (4% DMSO solution). 5 μL of the drug solution or a control solution (4% DMSO-assay buffer), 5 μL of the substrate mixture solution, and 10 μL of the enzyme solution were mixed in the wells of a polypropylene 384-well plate and allowed to react at room temperature for 1 hour, and then the reaction was quenched by adding 60 μL of the termination buffer included in the kit. Subsequently, the quantities of the substrates (S) and the phosphorylated substrate (P) in the reaction solution were measured using LabChip EZ Reader II system (manufactured by Caliper Life Sciences) according to the protocol of the assay kit.
The heights of the peaks of the “substrate” and the “phosphorylated substrate” were expressed as S and P, respectively, and a blank containing the assay buffer instead of the enzyme solution was also measured.
The inhibition rate (%) of the test compound was calculated according to the following equation:
Inhibition rate (%)=(1−(C−A)/(B−A))×100 • wherein, A, B, and C represent P/(P+S) of the blank well, P/(P+S) of the control solution well, and P/(P+S) of the compound-containing well, respectively.
The IC50 value was calculated via a regression analysis of the inhibition rate and the test compound concentration (logarithmic value).
The inhibiting activities of representative compounds of the present invention are shown against DYRK1A, DYRK1B, DYRK2, and DYRK3 in Tables.

DYRK3 = target: T3, DYRK3 (Homo sapiens, UniProt O43781); assay: Inhibition test on activity of DYRK family, mobility shift assay (MSA): DYRK3
T3 construct: purchased Carna Biosciences, Inc. 04-133
T3 sequence (O43781 1-568 isoform O43781-2): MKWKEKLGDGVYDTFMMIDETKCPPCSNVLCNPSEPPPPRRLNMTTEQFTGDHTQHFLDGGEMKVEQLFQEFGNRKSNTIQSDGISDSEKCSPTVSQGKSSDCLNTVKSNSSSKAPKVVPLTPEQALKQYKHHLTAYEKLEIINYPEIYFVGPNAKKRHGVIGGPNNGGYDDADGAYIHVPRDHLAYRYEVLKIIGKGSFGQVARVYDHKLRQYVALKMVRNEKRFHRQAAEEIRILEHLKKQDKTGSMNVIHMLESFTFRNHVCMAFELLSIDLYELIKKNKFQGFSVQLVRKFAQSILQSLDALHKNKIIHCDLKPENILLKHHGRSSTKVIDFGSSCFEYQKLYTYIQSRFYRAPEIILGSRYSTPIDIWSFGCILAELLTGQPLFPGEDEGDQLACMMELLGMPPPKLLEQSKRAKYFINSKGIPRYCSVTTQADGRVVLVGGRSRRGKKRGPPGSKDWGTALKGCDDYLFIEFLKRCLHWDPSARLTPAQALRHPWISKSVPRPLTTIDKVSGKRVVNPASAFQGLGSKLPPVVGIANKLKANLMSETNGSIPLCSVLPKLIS
Method in brief: as §1

DYRK1A = target: T4, DYRK1A (Homo sapiens, UniProt Q13627); assay: Inhibition test on activity of DYRK family, mobility shift assay (MSA): DYRK1A
T4 construct: purchased Carna Biosciences, Inc. 04-130
Method in brief: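 IC50 derived by regressing inhibition rate on log compound concentration, using P/(P+S) peak ratios from electrophoretic separation. DYRK1A enzyme solution 0.2 ng/μL, substrate mix with 4 μM FITC-DYRKtide and 100 μM ATP, pH 7.5 HEPES; reaction run 1 h at room temperature.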

[1] = MSA, FITC-labeled DYRKtide peptide, ATP 40 μM, read-out: Inhibitory activity DYRK 2 (IC50 class)
[2] = MSA, FITC-labeled DYRKtide peptide, ATP 200 μM, read-out: Inhibitory activity DYRK 1B (IC50 class)
[3] = MSA, FITC-labeled DYRKtide peptide, ATP 20 μM, read-out: Inhibitory activity DYRK 3 (IC50 class)
[4] = MSA, FITC-labeled DYRKtide peptide, ATP 100 μM, read-out: Inhibitory activity DYRK 1A (IC50 class)

Structure (SMILES) | IC50 (DYRK2; [1]) [nM] | IC50 (DYRK1B; [2]) [nM] | IC50 (DYRK3; [3]) [nM] | IC50 (DYRK1A; [4]) [nM] | IC50 (DYRK2; read-out: Inhibitory activity DYRK 2) [nM] | IC50 (DYRK1B; read-out: Inhibitory activity DYRK 1B) [nM] | IC50 (DYRK3; read-out: Inhibitory activity DYRK 3) [nM] | IC50 (DYRK1A; read-out: Inhibitory activity DYRK 1A) [nM]
COCCN1CC[C@@H]2NC(=O)N(c3nc4c5c(ccc4s3)OCC5)[C@@H]2C1 (relative stereo) [Example 8, cis-3-(7,8-Dihydrofuro[3,2-e][1,3]benzothiazol-2-yl)-5-(2-methoxyethyl)octahydro-2H-imidazo[4,5-c]pyridin-2-one] | ≥ 1000 | 10 to 100 | ≥ 1000 | 10 to 100 | – | – | – | –
C[C@@H]1C[C@@H]2[C@H](CO1)NC(=O)N2c1nc2c3c(ccc2s1)OCC3 [Example 160] | ≥ 1000 | 100 to 1000 | ≥ 1000 | 100 to 1000 | – | – | – | –
CCN1CC[C@H]2NC(=O)N(c3nc4c5c(ccc4s3)OCC5)[C@H]2C1 (relative stereo) [Example 11, cis-3-(7,8-dihydrofuro[3,2-e][1,3]benzothiazol-2-yl)-5-ethyloctahydro-2H-imidazo[4,5-c]pyridin-2-one] | ≥ 1000 | 10 to 100 | ≥ 1000 | 10 to 100 | – | – | – | –
N#CCN1CC[C@@H]2NC(=O)N(c3nc4c5c(ccc4s3)OCC5)[C@@H]2C1 (racemic) [Example 100, rac-[(3aR,7aS)-3-(7,8-dihydrofuro[3,2-e][1,3]benzothiazol-2-yl)-2-oxooctahydro-5H-imidazo[4,5-c]pyridin-5-yl]acetonitrile] | – | – | – | – | ≥ 1000 | 10 to 100 | ≥ 1000 | < 10
C[C@H]1NC(=O)N(c2nc3c4c(ccc3s2)OCC4)[C@@H]1CN1CCOCC1 [Example 24, (4R,5R)-1-(7,8-dihydrofuro[3,2-e][1,3]benzothiazol-2-yl)-4-methyl-5-[(morpholin-4-yl)methyl]imidazolidin-2-one] | ≥ 1000 | 10 to 100 | ≥ 1000 | 10 to 100 | – | – | – | –
C[C@H]1C[C@@H]2[C@H](CO1)NC(=O)N2c1nc2c3c(ccc2s1)OCO3 [Example 139, (3aR,6S,7aR)-1-(2H-[1,3]dioxolo[4,5-e][1,3]benzothiazol-7-yl]-6-methylhexahydropyrano[3,4-d]imidazol-2(3H)-one] | 100 to 1000 | < 10 | 10 to 100 | < 10 | – | – | – | –
CN1C[C@H]2NC(=O)N(c3nc4c5c(ccc4s3)OCC5)[C@H]2C1 (relative stereo) [Example 14, cis-1-(7,8-dihydrofuro[3,2-e][1,3]benzothiazol-2-yl)-5-methylhexahydropyrrolo[3,4-d]imidazol-2(1H)-one] | 100 to 1000 | 10 to 100 | 10 to 100 | 10 to 100 | – | – | – | –
O=C1N[C@H]2CO[C@@H](CF)C[C@H]2N1c1nc2c3c(ccc2s1)OCO3 [Example 140, (3aR,6R,7aR)-1-(2H-[1,3]dioxolo[4,5-e][1,3]benzothiazol-7-yl]-6-(fluoromethyl)hexahydropyrano[3,4-d]imidazol-2(3H)-one] | 10 to 100 | < 10 | 10 to 100 | < 10 | – | – | – | –
C[C@@H]1NC(=O)N(c2nc3c4c(ccc3s2)OCC4)[C@@H]1CN1CCOCC1 [Example 23, (4S,5R)-1-(7,8-dihydrofuro[3,2-e][1,3]benzothiazol-2-yl)-4-methyl-5-[(morpholin-4-yl)methyl]imidazolidin-2-one] | 100 to 1000 | < 10 | 100 to 1000 | < 10 | – | – | – | –
C[C@H]1OC[C@@H]2NC(=O)N(c3nc4c5c(ccc4s3)OCC5)[C@@H]21 [Example 161, (3aR,6R,6aS)-1-(7,8-Dihydrofuro[3,2-e][1,3]benzothiazol-2-yl)-6-methyltetrahydro-1H-furo[3,4-d]imidazol-2(3H)-one] | 10 to 100 | 10 to 100 | 100 to 1000 | 10 to 100 | – | – | – | –
O=C1NC2CNCC2N1c1nc2c3c(ccc2s1)OCC3 (stereo not drawn) [Example 3] | ≥ 1000 | 100 to 1000 | 100 to 1000 | 100 to 1000 | – | – | – | –
CN1CC[C@H]2NC(=O)N(c3nc4c5c(ccc4s3)OCC5)[C@H]2C1 (single isomer, unassigned) [Example 27] | ≥ 1000 | ≥ 1000 | ≥ 1000 | ≥ 1000 | – | – | – | –
CC[C@H]1C[C@@H]2[C@H](CO1)NC(=O)N2c1nc2c3c(ccc2s1)OCC3 [Example 42, (3aR,6S,7aR)-1-(7,8-dihydrofuro[3,2-e][1,3]benzothiazol-2-yl)-6-ethylhexahydropyrano[3,4-d]imidazol-2(3H)-one] | 100 to 1000 | < 10 | 100 to 1000 | < 10 | – | – | – | –
CN1CC[C@@H]2[C@H](C1)NC(=O)N2c1nc2c3c(ccc2s1)OCC3 (relative stereo) [Example 9, cis-1-(7,8-dihydrofuro[3,2-e][1,3]benzothiazol-2-yl)-5-methyloctahydro-2H-imidazo[4,5-c]pyridin-2-one] | 100 to 1000 | 10 to 100 | 100 to 1000 | 10 to 100 | – | – | – | –
CN1CC[C@@H]2NC(=O)N(c3nc4c5c(ccc4s3)OCC5)[C@@H]2C1 (single isomer, unassigned) [Example 28] | ≥ 1000 | 10 to 100 | ≥ 1000 | 10 to 100 | – | – | – | –
